In ChEMBL document CHEMBL1132066, “Synthesis of alpha-C(1-->3)-mannopyranoside of N-acetylgalactosamine, a new beta-galactosidase inhibitor” (Bioorg Med Chem Lett, 1999):

Experiments:
[1] = tested on: Beta-galactosidase (Canavalia ensiformis); experiment: Compound was evaluated for the percentage inhibition of beta-galactosidase enzyme from jack bean at the concentration of 1 mM
[2] = target: Beta-galactosidase (Escherichia coli) (UniProt Q8VNN2); experiment: Compound was evaluated for the percentage inhibition of beta-galactosidase enzyme from Escherichia coli at the concentration of 1 mM
Beta-galactosidase (Escherichia coli), sequence (Q8VNN2 whole entry, looked up): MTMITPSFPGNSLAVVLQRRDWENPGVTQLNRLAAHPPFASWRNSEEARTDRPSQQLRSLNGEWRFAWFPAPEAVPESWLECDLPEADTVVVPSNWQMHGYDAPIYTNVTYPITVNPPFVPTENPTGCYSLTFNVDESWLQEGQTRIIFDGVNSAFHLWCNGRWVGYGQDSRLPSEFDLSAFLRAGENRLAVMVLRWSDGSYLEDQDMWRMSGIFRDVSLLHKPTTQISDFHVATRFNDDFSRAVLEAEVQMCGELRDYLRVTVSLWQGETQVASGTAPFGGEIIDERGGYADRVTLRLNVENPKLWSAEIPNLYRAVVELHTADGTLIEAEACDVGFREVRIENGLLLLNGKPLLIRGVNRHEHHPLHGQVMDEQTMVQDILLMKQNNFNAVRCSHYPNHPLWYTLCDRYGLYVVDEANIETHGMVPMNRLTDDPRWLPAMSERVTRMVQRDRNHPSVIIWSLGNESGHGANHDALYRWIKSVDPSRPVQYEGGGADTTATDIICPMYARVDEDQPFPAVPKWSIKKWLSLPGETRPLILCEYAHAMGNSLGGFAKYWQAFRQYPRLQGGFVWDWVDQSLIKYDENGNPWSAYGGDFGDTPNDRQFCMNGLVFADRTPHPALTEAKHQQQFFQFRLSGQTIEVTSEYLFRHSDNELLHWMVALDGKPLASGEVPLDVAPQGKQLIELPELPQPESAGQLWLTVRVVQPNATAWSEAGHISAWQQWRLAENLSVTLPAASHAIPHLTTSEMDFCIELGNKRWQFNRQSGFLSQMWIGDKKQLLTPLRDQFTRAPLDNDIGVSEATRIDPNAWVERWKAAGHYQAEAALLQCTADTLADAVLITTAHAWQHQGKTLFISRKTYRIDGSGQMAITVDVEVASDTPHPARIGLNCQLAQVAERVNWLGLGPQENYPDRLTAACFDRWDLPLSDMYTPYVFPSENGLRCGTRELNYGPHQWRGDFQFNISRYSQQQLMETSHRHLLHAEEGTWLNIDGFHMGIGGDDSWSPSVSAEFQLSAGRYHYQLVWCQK

[3] = target: Beta-galactosidase (Escherichia coli, UniProt Q8VNN2); experiment: Concentration required to inhibit beta-galactosidase enzyme by 50% from Escherichia coli was reported
Beta-galactosidase, sequence (Q8VNN2 whole entry): as the sequence (Q8VNN2 whole entry, looked up) above

inhibition [1]: 92% | inhibition [2]: 86% | IC50 [3]: 500 µM
SMILES: CC(=O)N[C@@H]1C(O)O[C@H](CO)[C@H](O)[C@@H]1C[C@H]1O[C@H](CO)[C@@H](O)[C@H](O)[C@@H]1O.CC(=O)N[C@H]1C(O)O[C@H](C(O)CO)[C@@H]1C[C@H]1O[C@H](CO)[C@@H](O)[C@H](O)[C@@H]1O (stereo partly drawn)
